# Legend:
# [1] = test system: IL-17A-induced G-CSF production in human normal keratinocyte (NHK); test: NHK Assay: IL-17A-induced G-CSF production in human normal keratinocyte; assay type: cell-based; conditions: Homo sapiens, Keratinocyte, 24 h, IL-17A 5 ng/mL, simple average if tested more than once
# Description: IL-17A acts directly on keratinocytes through binding to dimeric receptor IL-17RA/RC and drives the production of a number of inflammatory mediators known to be elevated in psoriasis lesional tissue. IL-17A small molecule inhibitors that block the IL-17A to interact with IL-17R would inhibit the IL-17A signaling in its targeted cells such as keratinocytes. The compound functional activity is evaluated for its impact on IL-17A-induced G-CSF production in human normal keratinocyte (NHK).
# Adult normal human keratinocytes are cultured in keratinocyte growth medium (Lonza) in a flask till reaching ˜90% confluence, then cells are transferred to a 384-well plate at density of 3000-4000 cell/well. Recombinant human IL-17A (Gibco PHC9174) is pre-incubated with titrated compound or DMSO for 1 h at rt then added to the cell culture plate. The final concentration of IL-17A is 5 ng/mL and DMSO is 0.2%, in the culture containing 5% FBS. Cells are cultured/treated for 24 h at 37° C. Supernatants are collected and G-CSF production is measured through HTRF technology using Human G-CSF Kit (CisBio). G-CSF concentration was extrapolated from the standard curve and IC50 is determined using GraphPad Prism. Cell viability is also evaluated using CellTiter-Glo kit (Promega) and effect of compound on cell viability is compared to DMSO control.
# [2] = biological target: IL-17A(FLAG-Tagged): IL-17RA(His-Tagged) (Homo sapiens, UniProt Q16552, K93Q); test: IL-17A(FLAG-Tagged): IL-17RA(His-Tagged) Binding Disruption Eu-HTRF Assay, Protocol 1; conditions: Protocol 1, FLAG tagged IL-17A 2.5 nM; simple average if tested more than once
# UniProt Q16552, sequence (Q16552 with tags, fused parts or gaps K93Q): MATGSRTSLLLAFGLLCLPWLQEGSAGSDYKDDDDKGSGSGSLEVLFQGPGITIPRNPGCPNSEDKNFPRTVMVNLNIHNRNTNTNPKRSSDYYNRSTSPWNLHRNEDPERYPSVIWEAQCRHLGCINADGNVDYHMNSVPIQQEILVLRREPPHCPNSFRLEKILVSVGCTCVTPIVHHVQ
# From the text: An antibody directed against the FLAG tag of IL-17A (SEQ ID NO: 1) is labeled with the HTRF donor chromophore (Europium-cryptate). IL-17A is present as a dimer that is “locked into” this quaternary structure due to the formation of loop-spanning […] disulfide bridges. The construct of IL-17RA used in the assay excludes the […] portion of the receptor and is fused to a C-terminal 10×His tag (SEQ ID NO:2). An antibody directed against the His tag of the IL-17RA chimera is labeled with the HTRF acceptor chromophore (“D2”). The fluorescence-resonance energy transfer (FRET) depends on the vicinity of the donor chromophore to the acceptor, and interruption of the binding between the IL-17A and IL-17RA causes the reduction/loss of FRET. Therefore, this assay allows to evaluate the compound effect on the binding IL-17A and IL-17RA by monitoring the fluorescence intensity of donor vs acceptor. The assay was run using either Protocol 1 or Protocol 2 as described below.
# Protocol 1. 40 nl of 2-fold serial diluted compound solution for total 22 dilution points is added into each well of a 1536-well, white, low-volume, non-binding plate (Greiner #782904), then 2 μl of FLAG tagged IL-17A at 2× final concentration (2.5 nM) in solution of PBS+0.01% Triton-X100 is added to each well. The assay plate is briefly centrifuged then incubated for 1 h at rt. A mixed solution is prepared containing 2×5 nM 10HIS×IL-17RA, 2×2.5 nM Eu-anti-FLAG (CISBIO), 2×5 nM D2-anti-HIS (CISBIO) in PBS+0.01% Triton-X100+200 mM Potassium Fluoride (Sigma 60238) and 2 μl of mix is added to each well of the assay plate. The plate is briefly centrifuged then incubated for 2 h at rt. The HTRF intensities at the wavelength of donor (620 nm) and acceptor (665 nm) are measured using BMG Pherastar. The ratio between intensities at two wavelengths is calculated and plotted against the compound concentration and the data is fitted to a one-site competition model to yield IC50 of the compound.
SMILES,IC50 [2] [nM],IC50 [1] [nM]
"CC(C)n1nccc1C(=O)N[C@@H](COC(C)(C)C(F)(F)F)c1nc2cc([C@@H](C)N3CC(F)(F)CNC3=O)ccc2[nH]1 (relative stereo) [Example 27, N—((R)-1-(5-((R*)-1-(5,5-Difluoro-2-oxotetrahydropyrimidin-1(2H)-yl)ethyl)-1H-benzo[d]imidazol-2-yl)-2-((1,1,1-trifluoro-2-methylpropan-2-yl)oxy)ethyl)-1-isopropyl-1H-pyrazole-5-carboxamide]",< 50,< 50
"Cc1nonc1C(=O)N[C@@H](COC(C)(C)C(F)(F)F)c1nc2cc([C@H](N3CC(F)(F)CNC3=O)C3(C#N)CC3)ccc2[nH]1 (relative stereo) [Example 40, N—((R*)-1-(5-((S*)-(1-Cyanocyclopropyl)(5,5-difluoro-2-oxotetrahydropyrimidin-1(2H)-yl)methyl)-1H-benzo[d]imidazol-2-yl)-2-((1,1,1-trifluoro-2-methylpropan-2-yl)oxy)ethyl)-4-methyl-1,2,5-oxadiazole-3-carboxamide]",50 to 100,> 100
"[2H]C1([2H])[C@H](C(F)(F)F)NC(=O)N1[C@@H](c1ccc2[nH]c([C@H](CC(C)(C)C(F)(F)F)NC(=O)c3nonc3C)nc2c1)C1CC1 (relative stereo) [Example 53, N—((S)-1-(5-((R)-Cyclopropyl((S*)-2-oxo-4-(trifluoromethyl)imidazolidin-1-yl-5,5-d2)methyl)-1H-benzo[d]imidazol-2-yl)-4,4,4-trifluoro-3,3-dimethylbutyl)-4-methyl-1,2,5-oxadiazole-3-carboxamide]",< 50,< 50
"[2H]C1([2H])[C@@H](C(F)(F)F)NC(=O)N1[C@H](COC)c1ccc2[nH]c([C@H](COC(C)(C)C(F)(F)F)NC(=O)c3nonc3C)nc2c1 (relative stereo) [Example 55, N—((R*)-1-(5-((S)-2-methoxy-1-((S*)-2-oxo-4-(trifluoromethyl)imidazolidin-1-yl-5,5-d2)ethyl)-1H-benzo[d]imidazol-2-yl)-2-((1,1,1-trifluoro-2-methylpropan-2-yl)oxy)ethyl)-4-methyl-1,2,5-oxadiazole-3-carboxamide]",< 50,< 50
"Cc1nonc1C(=O)N[C@@H](COC(C)(C)C(F)(F)F)c1nc2cc(CN3C[C@](C)(C(F)(F)F)NC3=O)ccc2[nH]1 (relative stereo) [Example 57, 4-Methyl-N—((R*)-1-(5-(((R*)-4-methyl-2-oxo-4-(trifluoromethyl)imidazolidin-1-yl)methyl)-1H-benzo[d]imidazol-2-yl)-2-((1,1,1-trifluoro-2-methylpropan-2-yl)oxy)ethyl)-1,2,5-oxadiazole-3-carboxamide]",< 50,> 100
"Cc1nonc1C(=O)N[C@@H](COC(C)(C)C(F)(F)F)c1nc2cc(CN3C[C@@](C)(C(F)(F)F)NC3=O)ccc2[nH]1 (relative stereo) [Example 58, 4-Methyl-N—((R*)-1-(5-(((S*)-4-methyl-2-oxo-4-(trifluoromethyl)imidazolidin-1-yl)methyl)-1H-benzo[d]imidazol-2-yl)-2-((1,1,1-trifluoro-2-methylpropan-2-yl)oxy)ethyl)-1,2,5-oxadiazole-3-carboxamide]",< 50,< 50
"[2H]C1([2H])[C@@H](C(F)(F)F)NC(=O)N1[C@H](COC1CC1)c1ccc2[nH]c([C@H](COC(C)(C)C(F)(F)F)NC(=O)c3nonc3C)nc2c1 (relative stereo) [Example 59, N—((R*)-1-(5-((S*)-2-Cyclopropoxy-1-((S*)-2-oxo-4-(trifluoromethyl)imidazolidin-1-yl-5,5-d2)ethyl)-1H-benzo[d]imidazol-2-yl)-2-((1,1,1-trifluoro-2-methylpropan-2-yl)oxy)ethyl)-4-methyl-1,2,5-oxadiazole-3-carboxamide]",< 50,< 50

# More lines, main results first:
IC50 [2] [nM],SMILES,IC50 [1] [nM]
< 50,"CC(C)n1nccc1C(=O)N[C@@H](COC(C)(C)C(F)(F)F)c1nc2nc(CN3C[C@H](C(F)(F)F)NC3=O)ccc2[nH]1 (relative stereo) [Example 36, 1-Isopropyl-N—((R*)-1-(5-(((R*)-2-oxo-4-(trifluoromethyl)imidazolidin-1-yl)methyl)-1H-imidazo[4,5-b]pyridin-2-yl)-2-((1,1,1-trifluoro-2-methylpropan-2-yl)oxy)ethyl)-1H-pyrazole-5-carboxamide]",< 50
> 100,"CC(C)n1nccc1C(=O)N[C@@H](COC(C)(C)C(F)(F)F)c1nc2nc(CN3C[C@@H](C(F)(F)F)NC3=O)ccc2[nH]1 (relative stereo) [Example 37, 1-Isopropyl-N—((R*)-1-(5-(((S*)-2-oxo-4-(trifluoromethyl)imidazolidin-1-yl)methyl)-1H-imidazo[4,5-b]pyridin-2-yl)-2-((1,1,1-trifluoro-2-methylpropan-2-yl)oxy)ethyl)-1H-pyrazole-5-carboxamide]",> 100
< 50,"CC(C)(OC[C@H](NC(=O)c1nonc1C1CC1)c1nc2nc(CN3C[C@H](C(F)(F)F)NC3=O)ccc2[nH]1)C(F)(F)F (relative stereo) [Example 38, 4-Cyclopropyl-N—((R*)-1-(5-(((R*)-2-oxo-4-(trifluoromethyl)imidazolidin-1-yl)methyl)-1H-imidazo[4,5-b]pyridin-2-yl)-2-((1,1,1-trifluoro-2-methylpropan-2-yl)oxy)ethyl)-1,2,5-oxadiazole-3-carboxamide]",< 50
> 100,"CC(C)(OC[C@H](NC(=O)c1nonc1C1CC1)c1nc2nc(CN3C[C@@H](C(F)(F)F)NC3=O)ccc2[nH]1)C(F)(F)F (relative stereo) [Example 39, 4-Cyclopropyl-N—((R*)-1-(5-(((S*)-2-oxo-4-(trifluoromethyl)imidazolidin-1-yl)methyl)-1H-imidazo[4,5-b]pyridin-2-yl)-2-((1,1,1-trifluoro-2-methylpropan-2-yl)oxy)ethyl)-1,2,5-oxadiazole-3-carboxamide]",> 100
< 50,"CC(C)(OC[C@H](NC(=O)c1nonc1C1CC1)c1nc2cc(CN3C[C@](C)(C(F)(F)F)NC3=O)ccc2[nH]1)C(F)(F)F (relative stereo) [Example 60, 4-Cyclopropyl-N—((R*)-1-(5-(((R*)-4-methyl-2-oxo-4-(trifluoromethyl)imidazolidin-1-yl)methyl)-1H-benzo[d]imidazol-2-yl)-2-((1,1,1-trifluoro-2-methylpropan-2-yl)oxy)ethyl)-1,2,5-oxadiazole-3-carboxamide]",< 50
< 50,"CC(C)(OC[C@H](NC(=O)c1nonc1C1CC1)c1nc2cc(CN3C[C@@](C)(C(F)(F)F)NC3=O)ccc2[nH]1)C(F)(F)F (relative stereo) [Example 61, 4-Cyclopropyl-N—((R*)-1-(5-(((S*)-4-methyl-2-oxo-4-(trifluoromethyl)imidazolidin-1-yl)methyl)-1H-benzo[d]imidazol-2-yl)-2-((1,1,1-trifluoro-2-methylpropan-2-yl)oxy)ethyl)-1,2,5-oxadiazole-3-carboxamide]",< 50
< 50,"Cc1nonc1C(=O)NC(COC(C)(C)C(F)(F)F)c1nc2cc([C@@H](C)N3C[C@@H](C(F)(F)F)NC3=O)ccc2[nH]1 (single isomer, unassigned) [Example 6, 4-Methyl-N—((R*)-1-(5-((R)-1-((S)-2-oxo-4-(trifluoromethyl)imidazolidin-1-yl)ethyl)-1H-benzo[d]imidazol-2-yl)-2-((1,1,1-trifluoro-2-methylpropan-2-yl)oxy)ethyl)-1,2,5-oxadiazole-3-carboxamide]",< 50
